Test results taken from patent US6737383B1, “Herbicidal oxadiazolidines” (priority 1999, dated 2004).

Tests used:
[1] = tested on: surinam grass; test: Test B pre/postemergence surinam grass; format: in vivo, Brachiaria decumbens
In short: (§1)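 Test chemicals in a non-phytotoxic solvent mixture with surfactant were sprayed preemergence onto planted seeds and postemergence onto plants 2 to 18 cm tall (1- to 4-leaf stage). After twelve to sixteen days in a greenhouse, injury was visually rated against untreated controls from 0 (no effect) to 10 (complete control).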

[2] = tested on: bedstraw; test: Test B pre/postemergence bedstraw; format: in vivo, Galium aparine; settings: Preemergence, Rate 250 g/ha; scale 0 to 10, 0 is no effect, 10 is complete control
In short: as §1

[3] = tested on: corn; test: Test B pre/postemergence corn; format: in vivo, Zea mays
In short: as §1

[4] = tested on: soybean; test: Test B pre/postemergence soybean; format: in vivo, Glycine max; settings: for Plant response rating, Soybean: scale of 0 to 10 where 0 is no effect and 10 is complete control
In short: as §1

[5] = tested on: wild oat; test: Test B pre/postemergence wild oat; format: in vivo, Avena fatua; settings: for Plant response rating, Wild oats: scale of 0 to 10 where 0 is no effect and 10 is complete control
In short: as §1

[6] = tested on: purple nutsedge; test: Test B pre/postemergence purple nutsedge; format: in vivo, Cyperus rotundus; settings: for Plant response rating, Nutsedge: scale of 0 to 10 where 0 is no effect and 10 is complete control
In short: as §1

[7] = tested on: sugar beet; test: Test B pre/postemergence sugar beet; format: in vivo, Beta vulgaris; settings: for Plant response rating, Sugarbeets: scale of 0 to 10 where 0 is no effect and 10 is complete control
In short: as §1

[8] = tested on: pigweed; test: Test B pre/postemergence pigweed; format: in vivo, Amaranthus retroflexus; settings: for Plant response rating, Redroot pigweed: scale of 0 to 10 where 0 is no effect and 10 is complete control
In short: as §1

[9] = tested on: bamyardgrass; test: Test B flood test barnyardgrass; format: in vivo, Echinochloa crus-galli
In short: (§2)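 Plants were grown to the 2-leaf stage before treatment with test chemical, then held in a greenhouse for twelve to sixteen days. Injury was visually rated against untreated controls on a 0–10 scale, where 0 is no effect and 10 is complete control.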

[10] = tested on: cocklebur; test: Test B pre/postemergence cocklebur; format: in vivo, Xanthium strumarium
In short: as §1

[11] = tested on: velvetleaf; test: Test B pre/postemergence velvetleaf; format: in vivo, Abutilon theophrasti; settings: for Plant response rating, Velvetleaf: scale of 0 to 10 where 0 is no effect and 10 is complete control
In short: as §1

[12] = tested on: rape; test: Test B pre/postemergence rape; format: in vivo, Brassica napus; settings: for Plant response rating, Rape: scale of 0 to 10 where 0 is no effect and 10 is complete control
In short: as §1

[13] = tested on: rice; test: Test B flood test rice; format: in vivo, Oryza sativa
In short: as §2

[14] = tested on: blackgrass; test: Test B pre/postemergence blackgrass; format: in vivo, Alopecurus myosuroides
In short: as §1

[15] = tested on: smallflower flatsedge; test: Test B flood test smallflower flatsedge; format: in vivo, Cyperus difformis
In short: as §2

[16] = tested on: morningglory; test: Test B pre/postemergence morningglory; format: in vivo, Ipomoea hederacea; settings: for Plant response rating, Morningglory: scale of 0 to 10 where 0 is no effect and 10 is complete control
In short: as §1

[17] = Postemergence, Rate 500 g/ha, scale of 0 to 10 where 0 is no effect and 10 is complete control
[18] = Preemergence, Rate 62 g/ha, scale of 0 to 10 where 0 is no effect and 10 is complete control
[19] = Preemergence, Rate 125 g/ha, scale of 0 to 10 where 0 is no effect and 10 is complete control
[20] = Preemergence, Rate 250 g/ha, scale 0 to 10, 0 is no effect, 10 is complete control
[21] = Preemergence, Rate 500 g/ha, scale 0 to 10, 0 is no effect, 10 is complete control
[22] = Rate 62 g/ha, Postemergence, scale 0 to 10 (0 no effect, 10 complete control)
[23] = Rate 125 g/ha, Postemergence, scale 0 to 10, 0 is no effect, 10 is complete control
[24] = Postemergence, Rate 250 g/ha, scale 0 to 10
[25] = Rate 62 g/ha, flood test species, Pre-emergence, visual evaluation after twelve to sixteen days
[26] = Rate 125 g/ha, under heading Pre-emergence, flood test species, visual evaluation after twelve to sixteen days
[27] = Rate 250 g/ha, Pre-emergence (flood test species), scale 0 to 10, 0 is no effect, 10 is complete control
[28] = Rate 500 g/ha, Pre-emergence, flood test species, scale 0 to 10 (0 no effect, 10 complete control)

SMILES: CC(C)N(C(=O)n1oc(=O)n(CCC[Si](C)(C)C)c1=O)c1ccc(F)cc1 [Compound 461]
- B. signalgrass plant response rating ([1]; Postemergence, Rate 250 g/ha, scale 0 to 10, 0 no effect, 10 complete control): 0
- B. signalgrass plant response rating [1, 17]: 0
- Plant response rating, B. signalgrass [1, 18]: 0
- Plant response rating, B. signalgrass [1, 19]: 0
- B. signalgrass plant response rating [1, 20]: 0
- B. signalgrass plant response rating [1, 21]: 0
- B. signalgrass plant response rating [1, 22]: 0
- B. signalgrass plant response rating [1, 23]: 0
- Bedstraw plant response rating [2]: 0
- Corn plant response rating [3, 24]: 0
- Corn plant response rating [3, 17]: 0
- Plant response rating, Corn [3, 18]: 0
- Plant response rating, Corn [3, 19]: 0
- Corn plant response rating [3, 20]: 0
- Corn plant response rating [3, 21]: 0
- Corn plant response rating [3, 22]: 0
- Corn plant response rating [3, 23]: 0
- Soybean plant response rating [4, 24]: 3
- Plant response rating, Soybean ([4]; Preemergence, Rate 62 g/ha): 0
- Plant response rating, Soybean ([4]; Preemergence, Rate 125 g/ha): 0
- Soybean plant response rating [4, 20]: 0
- Soybean plant response rating [4, 21]: 0
- Soybean plant response rating [4, 22]: 2
- Soybean plant response rating [4, 23]: 3
- Wild oats plant response rating [5, 24]: 0
- Plant response rating, Wild oats ([5]; Preemergence, Rate 62 g/ha): 0
- Plant response rating, Wild oats ([5]; Preemergence, Rate 125 g/ha): 0
- Wild oats plant response rating [5, 20]: 0
- Wild oats plant response rating [5, 21]: 0
- Wild oats plant response rating [5, 22]: 0
- Wild oats plant response rating [5, 23]: 0
- Nutsedge plant response rating [6, 24]: 0
- Plant response rating, Nutsedge ([6]; Preemergence, Rate 62 g/ha): 0
- Plant response rating, Nutsedge ([6]; Preemergence, Rate 125 g/ha): 0
- Nutsedge plant response rating [6, 20]: 0
- Nutsedge plant response rating [6, 21]: 0
- Nutsedge plant response rating [6, 22]: 0
- Nutsedge plant response rating [6, 23]: 0
- Sugarbeets plant response rating [7, 24]: 0
- Plant response rating, Sugarbeets ([7]; Preemergence, Rate 62 g/ha): 0
- Plant response rating, Sugarbeets ([7]; Preemergence, Rate 125 g/ha): 0
- Sugarbeets plant response rating [7, 20]: 0
- Sugarbeets plant response rating [7, 21]: 0
- Sugarbeets plant response rating [7, 22]: 0
- Sugarbeets plant response rating [7, 23]: 0
- Redroot pigweed plant response rating [8, 24]: 0
- Plant response rating, Redroot pigweed ([8]; Preemergence, Rate 62 g/ha): 0
- Plant response rating, Redroot pigweed ([8]; Preemergence, Rate 125 g/ha): 0
- Redroot pigweed plant response rating [8, 20]: 0
- Redroot pigweed plant response rating [8, 21]: 0
- Redroot pigweed plant response rating [8, 22]: 0
- Redroot pigweed plant response rating [8, 23]: 0
- Plant response rating, Barnyardgrass (0 to 10 scale, 0 is no effect, 10 is complete control) [9, 25]: 0
- Barnyardgrass plant response rating (0 to 10 scale, 0 is no effect, 10 is complete control) [9, 26]: 0
- Barnyardgrass plant response rating [9, 27]: 0
- Barnyardgrass plant response rating [9, 28]: 0
- Cocklebur plant response rating [10, 24]: 0
- Cocklebur plant response rating [10, 17]: 3
- Plant response rating, Cocklebur [10, 18]: 0
- Plant response rating, Cocklebur [10, 19]: 0
- Cocklebur plant response rating [10, 20]: 0
- Cocklebur plant response rating [10, 21]: 0
- Cocklebur plant response rating [10, 22]: 0
- Cocklebur plant response rating [10, 23]: 0
- Velvetleaf plant response rating [11, 24]: 0
- Plant response rating, Velvetleaf ([11]; Preemergence, Rate 62 g/ha): 0
- Plant response rating, Velvetleaf ([11]; Preemergence, Rate 125 g/ha): 0
- Velvetleaf plant response rating [11, 20]: 0
- Velvetleaf plant response rating [11, 21]: 0
- Velvetleaf plant response rating [11, 22]: 0
- Velvetleaf plant response rating [11, 23]: 0
- Rape plant response rating [12, 24]: 0
- Plant response rating, Rape ([12]; Preemergence, Rate 62 g/ha): 0
- Plant response rating, Rape ([12]; Preemergence, Rate 125 g/ha): 0
- Rape plant response rating [12, 20]: 0
- Rape plant response rating [12, 21]: 0
- Rape plant response rating [12, 22]: 0
- Rape plant response rating [12, 23]: 0
- Plant response rating, Rice (0 to 10 scale, 0 is no effect, 10 is complete control) [13, 25]: 0
- Rice plant response rating (0 to 10 scale, 0 is no effect, 10 is complete control) [13, 26]: 0
- Rice plant response rating [13, 27]: 0
- Rice plant response rating [13, 28]: 0
- Blackgrass plant response rating [14, 24]: 0
- Blackgrass plant response rating [14, 17]: 3
- Plant response rating, Blackgrass [14, 18]: 0
- Plant response rating, Blackgrass [14, 19]: 0
- Blackgrass plant response rating [14, 20]: 0
- Blackgrass plant response rating [14, 21]: 0
- Blackgrass plant response rating [14, 22]: 0
- Blackgrass plant response rating [14, 23]: 0
- Plant response rating, S. Flatsedge (0 to 10 scale, 0 is no effect, 10 is complete control) [15, 25]: 0
- S. Flatsedge plant response rating (0 to 10 scale, 0 is no effect, 10 is complete control) [15, 26]: 0
- S. Flatsedge plant response rating [15, 27]: 0
- S. Flatsedge plant response rating [15, 28]: 0
- Morningglory plant response rating [16, 24]: 7
- Plant response rating, Morningglory ([16]; Preemergence, Rate 62 g/ha): 0
- Plant response rating, Morningglory ([16]; Preemergence, Rate 125 g/ha): 0
- Morningglory plant response rating [16, 20]: 0
- Morningglory plant response rating [16, 21]: 0
- Morningglory plant response rating [16, 22]: 3
- Morningglory plant response rating [16, 23]: 7
